In patent US20080017207A1, “Reduction of the Deleterious Effects of Tobacco Smoking by the Induction of Phase 2 Enzymes by Nerf2” (SAVIPU PHARMACEUTICALS, priority 2006, published 2008):

Assays:
[1] = system: benzo[a]pyrene-induced gastric neoplasia; details: cited from earlier work
[2] = system: benzo[a]pyrene-induced transformation of RTE cells; experiment: rat tracheal epithelial (RTE) cell focus inhibition assay; format: cell-based
Description: (§1) The rat tracheal epithelial (RTE) cell focus inhibition assay was used to identify potential chemopreventive activity of tanshinone IIA. Tanshinone IIA was evaluated for its ability to inhibit benzo[a]pyrene-induced transformation of RTE cells. Tracheal epithelial cells were isolated from 8-12 week-old male Fisher 344 rats and plated on collagen coated dishes. Initially, a nontoxic concentration of tanshinone IIA was determined by treating RTE cells with a range of 1.5 nM to 3000 nM of tanshinone IIA. […] About 10% cells survived at a concentration of 1500 nM. Freshly isolated RTE cells were exposed to benzo[a]pyrene alone or in combination with tanshinone IIA. Benzo[a]pyrene was washed out after an exposure of 24 h. The maximal non-toxic concentration and four half log concentrations of tanshinone IIA (300 nM to 3 nM) were used for the chemopreventive assay. After 30 days in culture, transformed foci were scored and inhibition was quantitated. […] A positive control of retinoic acid inhibited the transformation frequency by 50% at 1 nM.

NF-κB = details: as disclosed in U.S. Application Ser. No. 60/779,142; cited from earlier work
RTE cells = experiment: toxicity of tanshinone IIA to RTE cells; format: cell-based, rat
Description: as §1

Cc1c(-c2cnccn2)ssc1=S [Oltipraz, 4-methyl-5-[2-pyrazinyl]-1,2-dithiole-3-thione]
tumor burden ([1]; nrf2-deficient mice): no effect | multiplicity of gastric neoplasia ([1]; wild-type mice): significantly reduced

Cc1coc2c1C(=O)C(=O)c1c-2ccc2c1CCCC2(C)C [Tanshinone IIA]
prevention of benzo[a]pyrene-induced transformation of rat tracheal epithelial cells ([2]; 3 nM): totally prevented | inhibition of transformation frequency ([2]; each dose level, 300 nM to 3 nM, foci scored after 30 days in culture): complete inhibition | inhibition of NF-κB (NF-κB): demonstrated inhibition | cells survived (RTE cells; at 1500 nM): About 10% | nontoxic concentration (RTE cells; range tested 1.5 nM to 3000 nM): ≤ 150 nM | toxicity to the cells (RTE cells; very low concentrations (3 nM)): nontoxic

CC1=C(/C=C/C(C)=C/C=C/C(C)=C/C(=O)O)C(C)(C)CCC1 [retinoic acid, reference compound]
inhibition at 0.001 µM ([2]; Rattus norvegicus, at 1 nM, positive control, read-out: inhibition of transformation frequency): 50%
